We go through eight molecules from PubChem BioAssay (NCI).

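Protocol summary: plate cells (96-well), add compound at 5 concentrations, incubate 48 h, interpolate endpoints linearly. GI50 = concentration required for 50% inhibition of growth. TGI: concentration producing complete growth inhibition.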

Experiment in all cases: growth of human tumour cells (NCI), 48 h
Assay [1] has as its system ACHN renal.
Assay [2] concerns HCT-116 colon.
In assay [3] the test system is OVCAR-5 ovarian.
Assay [4] relates to T-47D breast.
The test system of assay [5] is HOP-62 NSCLC.
In assay [6] the test system is M14 melanoma.
Assay [7] deals with SR leukemia.
The test system of assay [8] is COLO 205 colon.
Assay [9] concerns NCI-H226 lung.
Assay [10] relates to SW-620 colon.

As to `CC(=O)CCc1ccc(Oc2c3ccccc3nc3occc23)cc1`, the GI50 in assay [1] was 19.1 µM; in [2], 19.1 µM; in [3], 19 µM; in [4], 2.3 µM; in assay [5] it was 20.1 µM; in [6], 15.3 µM. In addition, the GI50 was 19.7 µM in assay [7], 16.8 µM in assay [8] and 15.5 µM in assay [9]. The TGI in assay [1] turned out to be 49.6 µM; in assay [2], 79.5 µM; in assay [3], 38.9 µM; in [4], 22.6 µM; in assay [5], 35.4 µM; in [6], 29.2 µM. Moreover, the figures for the TGI in [7], in assay [8] and in assay [9] were 57.3 µM, 33.1 µM and 34.3 µM, respectively.
On to `N#Cc1ccc2[nH]cc(Cc3c[nH]c4ccc(C#N)cc34)c2c1`, for which the GI50 in assay [1] is 12.2 µM; in assay [2], 10.9 µM; in [3] it was 12.3 µM; in assay [4], 10.6 µM; in assay [5], 11.6 µM; in assay [6], 10.9 µM. Also, the GI50 in [7] is 7.99 µM; in assay [10], 17.8 µM; in assay [8], 15.8 µM; in [9], 17.9 µM. Also, the TGI in assay [1] was 35.5 µM; in [2] it was 28.4 µM; in assay [3], 29.8 µM; in [4], 32.8 µM; in assay [5], 28.5 µM; in [6], 24.3 µM. In addition, the TGI in [7] was 36.7 µM; in assay [10], more than 50 µM; in [8] it was more than 50 µM; in assay [9], more than 50 µM.
Consider `COc1ccc2c(c1)/C(=C\c1c(-c3ccccc3)nc3sccn13)C(=O)N2`, for which the GI50 in assay [1] was 1.23 µM; in [2] it was 1.43 µM; in [3] it was 5.13 µM; in [4], 8.33 µM; in [5] it was 2.42 µM; in assay [6] it was 7.11 µM. In addition, the GI50 in assay [7] was 24 µM; in assay [8] it was 18.7 µM; in assay [9], 3.44 µM. Besides, the TGI in [1] worked out at 14.7 µM; in [2], 8.19 µM; in assay [3] it was 40.4 µM; in [4] it was 30.9 µM; in [5], 14.9 µM; in assay [6], 18.4 µM. Further, the TGI was more than 100 µM in assay [7], more than 49.6 µM in assay [10], 45.8 µM in assay [8] and 33.7 µM in assay [9].
For the molecule `OCC#Cc1ccccc1C#Cc1ccc(C#Cc2ccccc2C#CCO)cc1`, the GI50 was 36.2 µM in assay [1]; 25.8 µM in [2]; 30.4 µM in assay [3]; more than 100 µM in assay [4]; 28.1 µM in assay [5]; 22 µM in assay [7]. Also, the GI50 in assay [10] is 38.1 µM; in assay [8] it was more than 100 µM; in assay [9], 56.8 µM. For the same molecule, the TGI was more than 100 µM in assay [1]; 66.7 µM in assay [2]; 75.9 µM in [3]; more than 100 µM in [4]; 68.5 µM in [5]; 49.5 µM in [7]. Moreover, the TGI in [10], in assay [8] and in assay [9] was more than 100 µM throughout.
Turning to `Cn1cnc(SC2=CC(=O)C=C3S[C@H]4C[C@@]23c2c(c(O)c3c5c2=NCCC=5C=N3)N4)c1CC(N)C(=O)O` (some centres not stated), the GI50 in [1] is 15.6 µM; in assay [2], 2.24 µM; in [3], 19.4 µM; in assay [4], 20.2 µM; in assay [6] it was 15.1 µM; in assay [7] it was 20.9 µM. Also, the results for the GI50 in assay [8] and in assay [9] were 1.53 µM and 15.8 µM, respectively. The TGI in [1] came to 29.1 µM; in [2] it was 4.88 µM; in assay [3], 33.6 µM; in [4], 38.3 µM; in [6], 28.6 µM; in assay [7], 98.9 µM. In addition, the TGI in assay [10] worked out at 9.52 µM; in assay [8] it was 3.01 µM; in assay [9] it was 33.8 µM.
Regarding `CCOc1ccc(Nc2ccnc3cc(Cl)ccc23)cc1`, the GI50 is 49.6 µM in assay [1]; 35 µM in [2]; 8.02 µM in assay [3]; more than 100 µM in [4]; more than 100 µM in assay [5]; 14.7 µM in assay [7]. The values for the GI50 in [10], in [8] and in [9] were more than 100 µM, more than 100 µM and 79.7 µM, respectively. The TGI in [1], in assay [2], in [3], in assay [4], in assay [5] and in [7] was more than 100 µM in each case. The TGI in assay [10], in assay [8] and in assay [9] was more than 100 µM throughout.
As to `O=c1cccccc1O`, the TGI in [1], in assay [2], in assay [3], in assay [4], in assay [6] and in [7] was more than 100 µM in each case. In addition, the TGI in [10], in assay [8] and in [9] was more than 100 µM in each case.
Turning to `C=C(C)[C@@H]1C/C=C(/COC(C)=O)CC[C@H]2O[C@@]2(C)CC/C=C(\C)CC1`, the GI50 in [1] was more than 100 µM; in [2], 38 µM; in assay [3], more than 100 µM; in assay [4] it was more than 100 µM; in [5] it was more than 100 µM; in [6], more than 100 µM. Besides, the GI50 in assay [7] is 34.3 µM; in assay [8], more than 100 µM; in assay [9] it was more than 100 µM. In addition, the TGI in assay [1], in assay [2], in [3], in assay [4], in assay [5] and in assay [6] was more than 100 µM each time. The TGI is 91.5 µM in assay [7], more than 100 µM in assay [8] and more than 100 µM in assay [9].
